Assay results: paper PMC10328330 (PLOS ONE, 2023)
Read-outs that look alike come from different tables or passages of the source. Numbered stars: 1 amine (or outer) side, 2 acyl side, 3 side chain; on linkers, the order of the positions; unused ones are H or OH. Bridge positions count the residues as written; N and C are the ends. Square brackets hold non-standard residues; d marks the D form. Peptide text beside a SMILES is read from it. * marks the point of attachment. pTerphenylCO(4''-OnC5H11) = CCCCCOc1ccc(-c2ccc(-c3ccc(C(=O)*)cc3)cc2)cc1; Orn(4R-OH,5R-OH) = O=C([C@H](C[C@@H](O)[C@@H](O)N[*:3])N[*:1])[*:2]; hTyr(3S-OH,4S-OH) = N[C@H](C(=O)O)[C@H](O)[C@@H](O)c1ccc(O)cc1; Pro(3S-OH,4S-Me) = C[C@H]1CN[C@H](C(=O)O)[C@H]1O; Hyp = O=C(O)[C@@H]1C[C@@H](O)CN1

Columns and labels:
in vitro = conditions: human
[1] = test system: T. gondii tachyzoites (RH strain, clone 2F1); assay: microbe, parasite or virus in culture; assay type: cell-based, Toxoplasma gondii; conditions: for EC50: 72 h, read-out: EC50 ± SD against T. gondii tachyzoites
[2] = Cytotoxicity in mammalian cells (MTT assay); conditions: human, HFF cells
T. gondii = test system: T. gondii; design: method as in PMID 23019377; conditions: T. gondii-infected mice, after 16 days of treatment, cited from earlier work
HFF cells = assay: Cytotoxicity in mammalian cells (MTT assay); conditions: read-out: CC50 ± SD against HFF cells; HFF, 72 h, MTT; highest tested concentration 50 μM; ± SD of two independent experiments
[3] = Toxoplasma gondii, RH-2F1 tachyzoites in HFF, β-galactosidase readout, ± SD of two independent experiments
[4] = CC50 HFF cells/EC50 T. gondii ratio
[5] = RH-2F1 tachyzoites in HFF, β-galactosidase readout, ± SD of two independent experiments

Structure (SMILES) | EC50 [1, 3] | CC50 at 72 h [2] | Selectivity Index (SI) [1, 4] | further results
CN(C)CCOc1ccc(/C(=C(/CCCl)c2ccccc2)c2ccccc2)cc1 [Compound 16, Toremifene] | – | – | – | CC50 at 72 h (in vitro): 44.3 ± 6.8 µM; EC50 ([1]; Toxoplasma gondii): 850 ± 180 nM
CN(C)[C@@H]1C(O)=C(C(N)=O)C(=O)[C@@]2(O)C(O)=C3C(=O)c4c(O)cccc4[C@@](C)(O)[C@H]3C[C@@H]12 [Compound 15, Tetracycline] | 910 ± 90 nM | – | – | CC50 (in vitro): > 50 µM
O=C1NCN(c2ccccc2)C12CCN(CCCC(c1ccc(F)cc1)c1ccc(F)cc1)CC2 [Compound 14, Fluspirilene] | 760 ± 70 nM | > 50 µM | – | –
CO[C@H]1C[C@@H]2CC[C@@H](C)[C@@](O)(O2)C(=O)C(=O)N2CCCC[C@H]2C(=O)O[C@H]([C@H](C)C[C@@H]2CC[C@@H](O)[C@H](OC)C2)CC(=O)[C@H](C)/C=C(\C)[C@@H](O)[C@@H](OC)C(=O)[C@H](C)C[C@H](C)/C=C/C=C/C=C/1C [Compound 17, Rapamycin] | 770 ± 300 nM | – | – | CC50 at 72 h (in vitro): > 50 µM; Selectivity Index (SI) [1]: >65
CCSc1ccc2c(c1)N(CCCN1CCN(C)CC1)c1ccccc1S2 [Compound 21, Thiethylperazine] | 900 ± 110 nM | – | – | CC50 at 72 h (in vitro): 33.1 ± 6.01 µM; Selectivity Index (SI) [1]: 37
O=c1[nH]c2ccccc2n1C1CCN(CCCC(c2ccc(F)cc2)c2ccc(F)cc2)CC1 [Compound 29, Pimozide] | 820 ± 220 nM | > 50 µM | – | Selectivity Index (SI) [1]: >61
CCCCCOc1ccc(-c2ccc(-c3ccc(C(=O)N[C@H]4C[C@@H](O)[C@@H](O)NC(=O)[C@@H]5[C@@H](O)[C@@H](C)CN5C(=O)[C@H]([C@@H](C)O)NC(=O)[C@H]([C@H](O)[C@@H](O)c5ccc(O)cc5)NC(=O)[C@@H]5C[C@@H](O)CN5C(=O)[C@H]([C@@H](C)O)NC4=O)cc3)cc2)cc1 [Compound 19, Anidulafungin] ({pTerphenylCO(4''-OnC5H11)}-[Orn(4R-OH,5R-OH)]T[Hyp][hTyr(3S-OH,4S-OH)]T[Pro(3S-OH,4S-Me)]; lactam 1-C) | 830 ± 210 nM | – | 47 | CC50 (in vitro): 38.9 ± 15.7 µM
COc1ccc2cc1Oc1ccc(cc1)C[C@H]1c3cc(c(OC)cc3CCN1C)Oc1c(OC)c(OC)cc3c1[C@H](C2)N(C)CC3 [Compound 13, Tetrandrine] | 490 ± 150 nM | – | – | CC50 (in vitro): 34.7 ± 17 µM; Selectivity Index (SI) [1]: 71
CCc1nc(N)nc(N)c1-c1ccc(Cl)cc1 [Compound 30, Pyrimetamine] | 370 ± 80 nM | > 50 µM | – | –
O=C1C(O)=C([C@H]2CC[C@H](c3ccc(Cl)cc3)CC2)C(=O)c2ccccc21 [Atovaquone] | – | – | – | reduction of the number of brain cysts (T. gondii; 5 mg/kg): 44%
C=CCNc1nc(NCC=C)nc(N2CCN(C(c3ccc(F)cc3)c3ccc(F)cc3)CC2)n1 [Compound 11, Almitrine] | 320 ± 140 nM | > 50 µM | – | –
Nc1nc(Nc2ccc3c(c2)CC[C@@H](N2CCCC2)CC3)nn1-c1cc2c(nn1)-c1ccccc1CCC2 [Compound 2, Bemcentinib] | 380 ± 190 nM | – | 83 | CC50 at 72 h (in vitro): 31.6 ± 5.52 µM
CCN1CCN(Cc2ccc(Nc3ncc(F)c(-c4cc(F)c5nc(C)n(C(C)C)c5c4)n3)nc2)CC1 [Compound 12, Abemaciclib] | 50 ± 20 nM | > 50 µM | – | –
CNCc1[cH-]ccc1CNc1ccnc2cc(Cl)ccc12.[Fe+2].c1cc[cH-]c1 [Compound 27, Desmethyl ferroquine] | – | – | 71 | CC50 (HFF cells): 38.2 ± 15.6 µM; EC50 [1, 5]: 540 ± 20 nM
C[C@@H](C1CCCCC1)n1c(-c2cc3c(cc2Br)OCO3)nc2cc(C(=O)Nc3ccc(C#N)cc3)ccc21 [Compound 26, AZ3451] | – | – | >55 | CC50 (HFF cells): > 50 µM; EC50 [1, 5]: 910 ± 90 nM
COc1cc(NC(=O)Nc2cccc(CNC(=O)O[C@H]3CCOC3)c2)ccc1-c1cnco1 [Compound 24, Merimepodib] | 780 ± 270 nM | – | – | CC50 (in vitro): 26.4 ± 10 µM

Structure (SMILES) | EC50 [1, 3] | CC50 at 72 h [2] | Selectivity Index (SI) [1, 4] | further results
Nc1nc2nc[nH]c2c(=S)[nH]1 [Compound 6, Tioguanine] | – | > 50 µM | – | Selectivity Index (SI) [1]: >109; EC50 ([1]; Toxoplasma gondii): 460 ± 190 nM
CNC(=O)c1cc(Oc2ccc(NC(=O)Nc3ccc(Cl)c(C(F)(F)F)c3)c(F)c2)ccn1 [Compound 4, Regorafenib] | 400 ± 150 nM | – | 29 | CC50 at 72 h (in vitro): 11.6 ± 2.19 µM
OC(CNCC(O)C1CCc2cc(F)ccc2O1)C1CCc2cc(F)ccc2O1 (stereo not drawn) [Compound 28, Nebivolol] | 780 ± 280 nM | 37.1 ± 2.88 µM | – | Selectivity Index (SI) [1]: 48
CCC(C)n1ncn(-c2ccc(N3CCN(c4ccc(OCC5COC(Cn6cncn6)(c6ccc(Cl)cc6Cl)O5)cc4)CC3)cc2)c1=O (stereo not drawn) [Compound 5, Itraconazole] | 100 ± 10 nM | > 50 µM | – | –
O=C(O)c1ccc2c(c1)nc(Nc1cccc(Cl)c1)c1ccncc12 [Compound 22, Silmitasertib] | 870 ± 150 nM | 38.4 ± 16.4 µM | – | –
O=C(Nc1ccc([N+](=O)[O-])cc1Cl)c1cc(Cl)ccc1O [Compound 1, Niclosamide] | 430 ± 150 nM | 35.5 ± 9.57 µM | – | Selectivity Index (SI) [1]: 83
C[C@@H]1C[C@@H]([C@H](O)CC2CC(=O)NC(=O)C2)C(=O)[C@@H](C)C1 [Compound 25, Cycloheximide] | 40 ± 20 nM | – | – | CC50 (in vitro): 2.48 ± 0.08 µM
COC(=O)C1=C(C)NC(C)=C(C(=O)OCCN2CCN(C(c3ccccc3)c3ccccc3)CC2)C1c1cccc([N+](=O)[O-])c1 (stereo not drawn) [Compound 10, Manidipine] | 700 ± 250 nM | – | >71 | CC50 at 72 h (in vitro): > 50 µM
COc1ccc2cc1Oc1ccc(cc1)C[C@H]1c3cc(c(OC)cc3CCN1C)Oc1c(O)c(OC)cc3c1[C@H](C2)N(C)CC3 [Compound 20, Hanfangchin B] | – | – | 54 | CC50 (HFF cells): 45 ± 5.85 µM; EC50 [1, 5]: 840 ± 190 nM
CCOc1ccc(Cc2nccc3cc(OCC)c(OCC)cc23)cc1OCC [Compound 3, Ethaverine] | 920 ± 90 nM | – | – | CC50 at 72 h (in vitro): > 50 µM; Selectivity Index (SI) [1]: >54
COc1cccc2c1CCCC2CCCN1CCN(C2CCCCC2)CC1 (stereo not drawn) [Compound 23, PB 28] | – | – | >102 | CC50 (HFF cells): > 50 µM; EC50 [1, 5]: 490 ± 210 nM
CNC(=O)c1cc(Oc2ccc(NC(=O)Nc3ccc(Cl)c(C(F)(F)F)c3)cc2)ccn1 [Compound 9, Sorafenib] | 650 ± 250 nM | 12.4 ± 3.17 µM | – | –
COc1cc2c3cc1Oc1c(OC)c(OC)cc4c1[C@@H](Cc1ccc(O)c(c1)Oc1ccc(cc1)C[C@@H]3N(C)CC2)N(C)CC4 [Compound 18, Berbamine] | 740 ± 340 nM | – | 61 | CC50 (in vitro): 45.3 ± 5.4 µM
COc1cc2[nH]c(C)c(-c3ccc(Oc4ccc(OC(F)(F)F)cc4)cc3)c(=O)c2cc1F [ELQ-316] | – | – | – | reduction of the number of brain cysts (T. gondii; 25 mg/kg): 88%
CC(C)(C)Cn1c(N)nc2ccc(-c3[nH]c(C(C)(C)C)nc3-c3ccc(F)cc3)nc21 [Compound 7, LY 2228820] | 230 ± 10 nM | – | 116 | CC50 (in vitro): 26.6 ± 11.6 µM
